Measurements published in paper PMC7297445, “Pharmacokinetic/Pharmacodynamic Determination and Preclinical Pharmacokinetics of the β-Lactamase Inhibitor ETX1317 and Its Orally Available Prodrug ETX0282” (ACS Infectious Diseases, 2020).
Read-outs that look alike come from different tables or passages of the source.

Key:
E. coli ARC2687 = assay: MIC, broth microdilution (CLSI); type: cell-based; conditions: Escherichia coli, ARC2687; combination at 1:2 ratio cefpodoxime:ETX1317, MIC of CPD
Description: (§1) MICs were determined utilizing a 1:2 ratio of cefpodoxime:ETX1317. […] The isolates utilized in the present study (Table 1) were broadly insensitive to CPD, presumably due to the presence of ESBLs and carbapenemases expressed in these strains. The addition of ETX1317 restored CPD activity to ≤1 μg/mL across all the tested isolates.
(§2) The MIC of each isolate was determined using the broth microdilution method following CLSI guidelines of document M07-A7 (CLSI M07-A7).

E. coli ARC4419 = assay: MIC, broth microdilution (CLSI); type: cell-based; conditions: Escherichia coli, combination at 1:2 ratio cefpodoxime:ETX1317, MIC of CPD
Description: as §1, §2

E. coli NMC101 = assay: MIC, broth microdilution (CLSI); type: cell-based; conditions: Escherichia coli, combination at 1:2 ratio cefpodoxime:ETX1317, MIC of CPD
Description: as §1, §2

K. pneumoniae ARC4420 = assay: MIC, broth microdilution (CLSI); type: cell-based; conditions: Klebsiella pneumoniae, combination at 1:2 ratio cefpodoxime:ETX1317, MIC of CPD
Description: as §1, §2

K. pneumoniae ARC4486 = assay: MIC, broth microdilution (CLSI); type: cell-based; conditions: Klebsiella pneumoniae, combination at 1:2 ratio cefpodoxime:ETX1317, MIC of CPD
Description: as §1, §2

K. pneumoniae ARC4488 = assay: MIC, broth microdilution (CLSI); type: cell-based; conditions: Klebsiella pneumoniae, ARC4488; combination at 1:2 ratio cefpodoxime:ETX1317, MIC of CPD
Description: as §1, §2

K. pneumoniae ARC5118 = assay: MIC, broth microdilution (CLSI); type: cell-based; conditions: Klebsiella pneumoniae, ARC5118; combination at 1:2 ratio cefpodoxime:ETX1317, MIC of CPD
Description: as §1, §2

[1] = Mouse oral pharmacokinetics (satellite infected animals); type: in vivo
[2] = Intravenous pharmacokinetics of ETX1317; type: in vivo; conditions: male, dog, i.v. 1 mg/kg
Description: Intravenous pharmacokinetics of ETX1317 investigated in jugular vein cannulated male Sprague–Dawley rats (Charles River Laboratories, n = 3/route) at a dose of 10 mg/kg formulated in 0.9% saline. Oral pharmacokinetics of ETX0282 was evaluated at a 10 mg/kg equivalent dose of ETX1317 formulated in 25:75 PEG 400:WFI. The pH of each formulation was verified to fall within a range of 4–7 and were confirmed to be in solution prior to dosing. Potency was verified by LC/MS/MS. Dose volumes were 5 and 10 mL/kg for ETX1317(i.v.) and ETX0282(p.o.), respectively for rats. In both dog (male, 3/route) and monkey (male, 3/route) studies, i.v. and p.o. doses were formulated on 25:75 PEG 400:WFI (pH ∼5) and administered at a dose of ∼1 mg/kg. Dose volume was 1 mL/kg for both routes in dogs and monkeys with the i.v. dose infused over 15 min. For oral doses, gavage tubes were flushed with 10 mL after administration of the dose. i.v. doses were sterile-filtered through 0.22 μm PVDF membrane prior to administration into the cephalic vein.
Blood sampling (∼1 mL) for dogs and monkeys was carried out via venipuncture of the jugular vein at the following time points:
i.v.: pre-dose, 0.083, 0.25 (prior to end of infusion), 0.5, 1, 1.5, 2, 4, 6, 8, 12, and 24 h post-dose
Blood samples were centrifuged at 3200 rpm for 10 min at approximately 5 °C. Plasma samples (500 μL) were transferred to 96-well plate tubes (MatrixTech, 0.5 mL). An equal amount (500 μL) of SIGMAFAST protease inhibitor solution (1 tablet dissolved in 10 mL distilled water, Sigma-Aldrich Part No. S8820) was added as a preservative to the 96-well plate tubes resulting in a 1:1 dilution. Diluted plasma samples were stored at −80 ± 10 °C.
Urine collection was collected directly into Nalgene bottles placed under metabolism cages with frozen ice packs to chill urine over the collection interval. Urine was collected 0–12, and 12–24 h post-dose. Following collection of each urine sample, the total urine weight was recorded and 3 mL aliquots were retained for LC/MS/MS analysis.
Non-compartmental analysis of time vs concentration data for ETX1317, ETX0282, CPD, and CPDP was completed using WinNonlin 8.1 (Pharsite Corporation, Mountain View CA). The maximum concentration (Cmax) was the highest observed concentration; Tmax was the earliest time at which Cmax occurred; and the elimination half-life was estimated as ln 2/kel, where kel is the elimination rate constant derived from the slope of the log concentration versus time profile. The area under the concentration–time curve from 0 h to the last time point (AUC0-tlast) was calculated by linear trapezoidal approximation. Clearance (CL) was estimated as Dose/AUC0-tlast and the steady state volume of distribution (Vd,ss) was estimated as CL* MRT, where MRT = AUMC/AUC (MRT = mean residence time and AUMC = area under the moment curve). Oral bioavailability (F) was determined from ETX1317 concentrations and normalizing doses to free acid equivalence, where F = AUCp.o.*(dosei.v.)/AUCi.v.*(dosep.o.).

[3] = Stability in liver microsomes; type: in vitro ADME
Description: (§3) Based upon the non-clinical PK data, a range of 60–80% bioavailability and a moderate absorption rate of 0.5–1.0 h^–1 have been considered for humans. In consideration of these predicted parameters, mean percent fT > CT of 1 μg/mL (2× MIC of 0.5 μg/mL) estimates for a 500 mg ETX1317 equiv q12h dose of ETX0282 are summarized in Table S3.

Excretion into the bile = conditions: in vivo
Description: as §3

[4] = unbound ETX1317 after oral ETX0282 10 mg/kg
[5] = unbound ETX1317 after oral ETX0282 50 mg/kg
[6] = unbound ETX1317 after oral ETX0282 200 mg/kg
[7] = unbound ETX1317 after oral ETX0282 400 mg/kg

`CC1=C[C@@H](C(N)=O)N2C[C@@H]1N(O[C@H](F)C(=O)O)C2=O` [ETX1317] gave an MIC (E. coli ARC2687) of 0.5 µg/mL, an MIC (E. coli ARC4419) of 0.25 µg/mL and an MIC (E. coli NMC101) of 1 µg/mL. For the same compound, the MIC (K. pneumoniae ARC4420) was 16 µg/mL, the MIC (K. pneumoniae ARC4486) was 32 µg/mL and the MIC (K. pneumoniae ARC4488) was 0.5 µg/mL. The MIC (K. pneumoniae ARC5118) was 32 µg/mL, the half-life ([1]; mouse, in vivo, mice, once formed from ETX0282) was 1.3 h and the “%Time > f[CT] 0.25 μg/mL” value ([1]; oral ETX0282 10 mg/kg) was 47%. For the same compound, the “%Time > f[CT] 0.5 μg/mL” value ([1]; oral ETX0282 10 mg/kg) was 25%, the “%Time > f[CT] 1.0 μg/mL” value ([1]; oral ETX0282 10 mg/kg) was 12% and the “%Time > f[CT] 2.0 μg/mL” value ([1]; oral ETX0282 10 mg/kg) was 8%. For the same compound, the “%Time > f[CT] 0.25 μg/mL” value ([1]; oral ETX0282 50 mg/kg) was 88%, the “%Time > f[CT] 0.5 μg/mL” value ([1]; oral ETX0282 50 mg/kg) was 50% and the “%Time > f[CT] 1.0 μg/mL” value ([1]; oral ETX0282 50 mg/kg) was 29%. The “%Time > f[CT] 2.0 μg/mL” value ([1]; oral ETX0282 50 mg/kg) was 28%, the “%Time > f[CT] 0.25 μg/mL” value ([1]; oral ETX0282 200 mg/kg) was 100% and the “%Time > f[CT] 0.5 μg/mL” value ([1]; oral ETX0282 200 mg/kg) was 100%. The “%Time > f[CT] 1.0 μg/mL” value ([1]; oral ETX0282 200 mg/kg) was 58%, the “%Time > f[CT] 2.0 μg/mL” value ([1]; oral ETX0282 200 mg/kg) was 35% and the “%Time > f[CT] 0.25 μg/mL” value ([1]; oral ETX0282 400 mg/kg) was 100%. The “%Time > f[CT] 0.5 μg/mL” value ([1]; oral ETX0282 400 mg/kg) was 100%, the “%Time > f[CT] 1.0 μg/mL” value ([1]; oral ETX0282 400 mg/kg) was 75% and the “%Time > f[CT] 2.0 μg/mL” value ([1]; oral ETX0282 400 mg/kg) was 38%. The fAUClast [1, 4] was 4700 ng·h/mL, the fCmax [1, 4] was 3.9 µg/mL and the fAUClast [1, 5] was 23000 ng·h/mL. It also gave a fCmax [1, 5] of 21 µg/mL, a fAUClast [1, 6] of 61000 ng·h/mL and a fCmax [1, 6] of 57 µg/mL. For the same compound, the fAUClast [1, 7] was 73000 ng·h/mL, the fCmax [1, 7] was 90 µg/mL and the AUC ([2]; plasma) was 2760 ± 340 ng·h/mL. It also gave a Cmax ([2]; plasma) of 2270 ± 490 ng/mL, a half-life ([2]; plasma) of 0.8 ± 0.1 h and a clearance ([2]; plasma, read-out: CL) of 5.7 ± 0.7 mL/min/kg. The Vd ([2]; plasma, read-out: Vd,ss) was 0.38 ± 0.05 L/kg, the clearance ([2]; urine and plasma, read-out: renal CL) was 1.1 ± 0.3 mL/min/kg and the “stability in liver microsomes” value [3] was “Good stability”. The “excretion into the bile” value (Excretion into the bile) was “minimal excretion”.
